Consider seven compounds from PubChem BioAssay (NCI).

The structures appear in SMILES notation. Several values for one entry are separate records, joined by “and”; a condition that tells them apart may be missing. Equal values may be shown once.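 Tested at 5 concentrations; 48 h exposure; 96-well plates; endpoints linearly interpolated, else capped at highest concentration. GI50 is the concentration that inhibits growth by half. TGI denotes the concentration required for complete inhibition of growth.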

Some test systems named below: NCI-H460 lung; SF-295 CNS; NCI-H226 lung; SF-539 CNS; NCI-H522 lung; BT-549 breast; MALME-3M melanoma; MCF7 breast; HCT-116 colon; OVCAR-8 ovarian.
Holding throughout (test): inhibition of tumour cell growth, NCI panel, 48 h

Take `O=C1OCC2=C1C(c1ccccc1)c1cc3c(cc1N2CCO)CCC3` (stereo not drawn): the GI50 in the test with NCI-H460 lung was 90 nM; with SF-295 CNS, 67.7 nM; in the test on NCI-H226 lung it was 1020 nM; in the test on SF-539 CNS it was 73.2 nM; in the test on NCI-H522 lung, 28.4 nM; with BT-549 breast, 223 nM. Also, the GI50 is 60.9 nM with MALME-3M melanoma, 84.1 nM in the test with MCF7 breast, 85.7 nM in the test on HCT-116 colon and 144 nM with OVCAR-8 ovarian. For the same compound, the TGI with NCI-H460 lung is 3510 nM; in the test with NCI-H226 lung, greater than 25000 nM; in the test on SF-539 CNS it was 966 nM; with NCI-H522 lung it was 119 nM; in the test on BT-549 breast it was greater than 25000 nM; in the test on MALME-3M melanoma, greater than 25000 nM. In addition, the TGI is greater than 25000 nM in the test on MCF7 breast, 5420 nM in the test on HCT-116 colon and greater than 25000 nM with OVCAR-8 ovarian.
Consider `C[C@@]12CCC[C@@](C)(C(=O)O)C1CC[C@]13C=C(CO)[C@](O)(CCC12)C3` (stereo partly drawn), for which the GI50 in the test on NCI-H460 lung, with SF-295 CNS, in the test on NCI-H226 lung, in the test with SF-539 CNS, in the test with NCI-H522 lung and with BT-549 breast was greater than 100000 nM throughout. Further, the GI50 in the test on MALME-3M melanoma, with MCF7 breast, in the test on HCT-116 colon and with OVCAR-8 ovarian was greater than 100000 nM throughout. Moreover, the TGI with NCI-H460 lung, with SF-295 CNS, with NCI-H226 lung, in the test with SF-539 CNS, with NCI-H522 lung and with BT-549 breast was greater than 100000 nM in each case. For the same compound, the TGI with MALME-3M melanoma, in the test on MCF7 breast, with HCT-116 colon and in the test on OVCAR-8 ovarian was greater than 100000 nM in each case.
Regarding `CCN(CC)CCC(CNc1c2ccc([N+](=O)[O-])cc2nc2cc(OC)c(OC)cc12)c1ccccc1` (stereo not drawn), the GI50 in the test with NCI-H460 lung was 118 nM and 52.5 nM; in the test on SF-295 CNS, 1090 nM and 930 nM; in the test with NCI-H226 lung, 260 nM and 329 nM; in the test on SF-539 CNS, 380 nM and 423 nM; with NCI-H522 lung, 345 nM and 166 nM; in the test on BT-549 breast it was 1490 nM and 740 nM. The GI50 in the test on MALME-3M melanoma is 201 nM and 191 nM; in the test with MCF7 breast, 36.3 nM and 42.8 nM; in the test with HCT-116 colon, 89.8 nM and 47.2 nM; in the test with OVCAR-8 ovarian, 450 nM and 166 nM. For the same compound, the TGI is 1050 nM and 631 nM in the test with NCI-H460 lung; 2490 nM and 2650 nM with SF-295 CNS; 869 nM and 1470 nM with NCI-H226 lung; 1460 nM and 1640 nM with SF-539 CNS; 1460 nM and 435 nM with NCI-H522 lung; 3780 nM and 2000 nM in the test on BT-549 breast. The TGI in the test with MALME-3M melanoma is 454 nM and 479 nM; with MCF7 breast, 905 nM and 1230 nM; with HCT-116 colon, 1140 nM and 491 nM; in the test on OVCAR-8 ovarian, 1870 nM and 978 nM.
On to `O=C1OCC2=C1C(c1cccc([N+](=O)[O-])c1)c1cc3c(cc1N2CCO)CCC3` (stereo not drawn), for which the GI50 in the test with NCI-H460 lung is 172 nM; with SF-295 CNS it was 78.9 nM; in the test on NCI-H226 lung, 1770 nM; in the test on SF-539 CNS, 110 nM; in the test on NCI-H522 lung, 43.1 nM; in the test with BT-549 breast, 177 nM. In addition, the GI50 was 504 nM with MALME-3M melanoma, 59.6 nM in the test on MCF7 breast, 148 nM in the test with HCT-116 colon and 244 nM in the test on OVCAR-8 ovarian. For the same compound, the TGI is 14600 nM with NCI-H460 lung; 16400 nM in the test with SF-295 CNS; 49400 nM in the test on NCI-H226 lung; 380 nM with SF-539 CNS; 6300 nM in the test with NCI-H522 lung; 5320 nM in the test with BT-549 breast. Further, the TGI with MALME-3M melanoma is 35100 nM; in the test on MCF7 breast, greater than 50000 nM; in the test with HCT-116 colon, 16000 nM; with OVCAR-8 ovarian, greater than 50000 nM.
As to `CCCCCCCCCCCCCCCCCC(=O)[O][Sn]([CH2]CCC)([CH2]CCC)[CH2]CCC`, the GI50 in the test with NCI-H460 lung is 109 nM; with SF-295 CNS it was 162 nM; with NCI-H226 lung it was 162 nM; with SF-539 CNS it was 181 nM; in the test on NCI-H522 lung, 140 nM; in the test on BT-549 breast, 138 nM. Further, the GI50 was 141 nM with MALME-3M melanoma, 134 nM in the test with MCF7 breast, 117 nM in the test with HCT-116 colon and 197 nM in the test with OVCAR-8 ovarian. The TGI was 251 nM with NCI-H460 lung; 435 nM with SF-295 CNS; 319 nM in the test with NCI-H226 lung; 377 nM in the test with SF-539 CNS; 318 nM with NCI-H522 lung; 287 nM in the test with BT-549 breast. The TGI amounted to 327 nM in the test on MALME-3M melanoma, 267 nM in the test on MCF7 breast, 250 nM with HCT-116 colon and 451 nM in the test with OVCAR-8 ovarian.
Take `CN(C)c1cc2c(cc1Sc1nc3c(N)nccc3n1CCNCC(C)(C)C)OCO2`: the GI50 was 376 nM in the test on NCI-H460 lung; 444 nM in the test with SF-295 CNS; 1690 nM in the test with NCI-H226 lung; 1450 nM in the test with SF-539 CNS; 453 nM in the test on NCI-H522 lung; 4220 nM in the test with BT-549 breast. Moreover, the GI50 is 428 nM with MALME-3M melanoma, 311 nM in the test with MCF7 breast, 381 nM in the test with HCT-116 colon and 399 nM with OVCAR-8 ovarian. Also, the TGI with NCI-H460 lung is 12100 nM; with SF-295 CNS, 13600 nM; in the test with NCI-H226 lung, 19700 nM; in the test on SF-539 CNS, 16300 nM; with NCI-H522 lung, 14300 nM; with BT-549 breast, 25000 nM. Moreover, the TGI with MALME-3M melanoma worked out at 4910 nM; with MCF7 breast it was 17900 nM; with HCT-116 colon, 13900 nM; in the test on OVCAR-8 ovarian it was 15800 nM.
For `COc1cc2c3c(n(CCCN=[N+]=[N-])c(=O)c2cc1OC)-c1ccc(N)cc1C3=O`, the GI50 in the test with NCI-H460 lung was 26.5 nM; with SF-295 CNS it was 83.5 nM; with NCI-H226 lung it was 249 nM; with SF-539 CNS it was 91.9 nM; in the test with NCI-H522 lung, 133 nM; in the test with BT-549 breast it was 244 nM. The GI50 in the test on MALME-3M melanoma was 804 nM; in the test with MCF7 breast, 143 nM; in the test with HCT-116 colon, 97 nM; with OVCAR-8 ovarian, 436 nM. The TGI turned out to be 139 nM in the test with NCI-H460 lung; 1510 nM in the test on SF-295 CNS; 1160 nM with NCI-H226 lung; 325 nM with SF-539 CNS; 983 nM in the test with NCI-H522 lung; 6400 nM in the test on BT-549 breast. In addition, the TGI with MALME-3M melanoma was determined as 4630 nM; with HCT-116 colon, 521 nM; in the test with OVCAR-8 ovarian, 1900 nM.
